According to patent US20160000803A1, “PHARMACEUTICAL COMPOSITION FOR TRANSMUCOSAL ADMINISTRATION OF BENZODIAZEPINES” (EASTGATE PHARMACEUTICALS INC., priority 2013, published 2016):
Read-outs that look alike come from different tables or passages of the source.

Columns and labels:
seizures = conditions: intranasal, human patients; cited from earlier work
[1] = Method: After combining of pre-weighed amounts of components they were gently triturated at room temperature (20-22° C.) using a stainless steel spatula until liquid phase is formed.
PTZ induced seizures = assay: Timed intravenous PTZ infusion test (ivPTZ); type: in vivo, mice
From the text: For investigation of anti-seizure activity of invented formulations, a timed intravenous PTZ infusion test was employed.
The technique of timed i.v. PTZ (pentylenetetrazole) infusion test (ivPTZ) is a simple, reproducible and fast method for assessment of onset, peak, duration and potency of various anticonvulsants and proconvulsants in animals. This test provides an extremely sensitive parametric method for assessing seizure threshold in individual animals and a quantifiable endpoint can be obtained with a minimal number of animals. Different seizure types can be chosen as endpoint in this test. Usually, the first seizure occurring during the PTZ infusion is a myoclonic twitch, followed by clonic and, later, tonic seizures.
This method offers many advantages over the more widely used classical subcutaneous PTZ (scPTZ) test. Since with ivPTZ, test effects based on different endpoints are measured in individual animals, the number of animals required for a proper evaluation is much lower than would be needed for standard scPTZ test. […]
During the infusion, mice are observed for the onset of different types of seizures. The time latencies from the start of infusion to the appearance of the first clonus (characterized by rapid involuntary rhythmic contraction and relaxation of limbs), lasting longer than 5 seconds, are recorded. […]

SMILES | onset of action (seizures) | increase of solubility ([1]; MCT oil + 5% Menthol by weight vs pure MCT oil) | increase of solubility ([1]; MCT with 8% Menthol vs pure MCT oil) | PTZ dose threshold (PTZ induced seizures; intraperitoneal 2.5 mg/kg, 5 minutes time point, infusion 0.3 ml/min, PTZ 10 mg/ml) | time of maximal protection (PTZ induced seizures; parenterally administered)
Cc1ncc2n1-c1ccc(Cl)cc1C(c1ccccc1F)=NC2 [Midazolam] | approximately 10 minutes | – | – | – | –
O=C1Nc2ccc(Cl)cc2C(c2ccccc2Cl)=NC1O (centres unmarked) [Lorazepam] | – | 28% | ~60% | 100 to 120 mg/kg | approximately 5 minutes
